Assays:
[1] = Cytotoxicity against human HeLa cells assessed as decrease in cell viability after 72 hrs by MTT assay; type: toxicity, cell-based
Homo sapiens = test: Anticancer activity in human AML patient assessed as improvement in remission rate at 50 mg/m2, iv for 1 to 3 days followed by cytarabine dose at 667 mg/m2/day as 72 hrs continuous infusion for 6 to 8 days and mitoxantrone at 40 mg/m2 administered on day 9; type: functional
[2] = biological target: Cyclin-dependent kinase 7/ cyclin H (Homo sapiens, UniProt P50613); test: Inhibition of CDK7/cyclin H (unknown origin); type: protein-complex assay
CDK2/Cyclin A2 [3] = biological target: T1, CDK2/Cyclin A2 (Homo sapiens, UniProt P24941); test: Inhibition of CDK2/cyclin A (unknown origin); type: protein-complex assay
[4] = biological target: Cyclin-dependent kinase 5/CDK5 activator 1 (Homo sapiens, UniProt Q00535); test: Inhibition of CDK5/p25 (unknown origin); type: protein-complex assay
[5] = biological target: Cyclin-dependent kinase 4/G1/S-specific cyclin-E1 (Homo sapiens, UniProt P11802); test: Inhibition of CDK4/cyclin E (unknown origin); type: protein-complex assay
[6] = biological target: Cyclin-dependent kinase 1/cyclin B1 (Homo sapiens, UniProt P06493); type: protein-complex assay
Description: Inhibition of CDK1/cyclin B (unknown origin)

[7] = biological target: Cyclin-dependent kinase 4/cyclin D1 (Homo sapiens, UniProt P11802); test: Inhibition of human N-terminal GST-tagged CDK4/cyclin D1 expressed in baculovirus infected Sf9 insect cells using retinoblastoma (792 to 928 residues) as substrate after 30 mins by gamma32P-ATP based scintillation counting analysis
CDK7/Cyclin H/MNAT1 = CDK7/Cyclin H/MNAT1 (Homo sapiens, UniProt P50613); test: Inhibition of CDK7/cyclin H/MAT1 (unknown origin); type: protein-complex assay
CDK2/Cyclin A2 [8] = biological target: T1, CDK2/Cyclin A2; test: Inhibition of recombinant human N-terminal GST-tagged CDK2/cyclin A expressed in baculovirus expression system using retinoblastoma (792 to 928 residues) as substrate after 30 mins by gamma32P-ATP based scintillation counting analysis
[9] = Inhibition of CDK6/cyclin D (unknown origin); design: species or system Homo sapiens
[10] = biological target: Cyclin-dependent kinase 2/cyclin E1 (Homo sapiens, UniProt P24941); test: Inhibition of human CDK2/cyclin E expressed in baculovirus infected Sf9 insect cells using retinoblastoma (792 to 928 residues) as substrate after 30 mins by gamma32P-ATP based scintillation counting analysis

Cyclin-dependent kinase 1/cyclin B1, sequence (P06493 whole entry, the tested form may be a part): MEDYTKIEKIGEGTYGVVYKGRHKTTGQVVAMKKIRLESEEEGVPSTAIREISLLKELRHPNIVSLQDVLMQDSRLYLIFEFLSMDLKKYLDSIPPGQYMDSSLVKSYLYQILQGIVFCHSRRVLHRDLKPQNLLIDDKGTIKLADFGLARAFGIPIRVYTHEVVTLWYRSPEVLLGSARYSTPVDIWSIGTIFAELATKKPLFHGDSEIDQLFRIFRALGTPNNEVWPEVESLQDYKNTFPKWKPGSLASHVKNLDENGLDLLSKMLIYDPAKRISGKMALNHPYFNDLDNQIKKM
Cyclin-dependent kinase 1/cyclin B1, sequence (P14635 whole entry, further chain, the tested form may be a part): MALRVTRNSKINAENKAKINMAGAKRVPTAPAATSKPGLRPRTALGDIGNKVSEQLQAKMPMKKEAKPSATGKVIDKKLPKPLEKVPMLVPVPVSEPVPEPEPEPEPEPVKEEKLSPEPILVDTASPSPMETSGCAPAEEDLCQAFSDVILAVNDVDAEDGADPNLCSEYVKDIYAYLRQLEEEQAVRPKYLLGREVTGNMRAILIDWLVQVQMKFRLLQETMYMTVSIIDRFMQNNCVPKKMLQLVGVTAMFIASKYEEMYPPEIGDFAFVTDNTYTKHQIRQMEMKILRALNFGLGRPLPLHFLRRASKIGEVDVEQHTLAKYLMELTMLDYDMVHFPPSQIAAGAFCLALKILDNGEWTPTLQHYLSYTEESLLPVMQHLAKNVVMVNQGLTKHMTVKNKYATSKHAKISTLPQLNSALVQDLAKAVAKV
Cyclin-dependent kinase 5/CDK5 activator 1, sequence (Q00535 whole entry): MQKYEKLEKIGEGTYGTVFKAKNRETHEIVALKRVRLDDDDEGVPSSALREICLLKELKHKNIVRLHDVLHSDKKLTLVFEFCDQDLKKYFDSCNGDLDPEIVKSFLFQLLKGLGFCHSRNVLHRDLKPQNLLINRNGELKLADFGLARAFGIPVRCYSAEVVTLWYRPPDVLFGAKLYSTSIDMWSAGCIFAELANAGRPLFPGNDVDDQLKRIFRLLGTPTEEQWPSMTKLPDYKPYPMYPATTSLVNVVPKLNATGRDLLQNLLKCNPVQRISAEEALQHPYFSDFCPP
Cyclin-dependent kinase 5/CDK5 activator 1, sequence (Q15078 whole entry, further chain): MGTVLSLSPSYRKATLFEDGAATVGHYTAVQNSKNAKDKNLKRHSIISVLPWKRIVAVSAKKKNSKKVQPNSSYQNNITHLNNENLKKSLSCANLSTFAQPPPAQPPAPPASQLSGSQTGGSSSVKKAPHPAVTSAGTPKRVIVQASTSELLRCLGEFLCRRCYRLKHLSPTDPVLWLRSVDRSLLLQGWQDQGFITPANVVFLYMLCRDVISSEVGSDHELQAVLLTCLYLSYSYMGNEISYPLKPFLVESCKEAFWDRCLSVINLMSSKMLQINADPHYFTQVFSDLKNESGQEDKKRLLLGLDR
CDK7/Cyclin H/MNAT1, sequence (P51946 whole entry, the tested form may be a part): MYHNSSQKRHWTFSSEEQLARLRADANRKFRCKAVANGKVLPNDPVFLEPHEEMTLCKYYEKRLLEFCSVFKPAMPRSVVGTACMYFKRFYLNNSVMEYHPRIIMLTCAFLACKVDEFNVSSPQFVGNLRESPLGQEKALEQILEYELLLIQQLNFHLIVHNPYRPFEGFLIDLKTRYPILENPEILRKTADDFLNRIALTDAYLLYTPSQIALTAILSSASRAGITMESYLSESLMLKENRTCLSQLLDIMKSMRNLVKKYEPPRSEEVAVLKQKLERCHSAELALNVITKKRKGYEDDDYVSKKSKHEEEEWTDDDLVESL
CDK7/Cyclin H/MNAT1, sequence (P50613 whole entry, the tested form may be a part): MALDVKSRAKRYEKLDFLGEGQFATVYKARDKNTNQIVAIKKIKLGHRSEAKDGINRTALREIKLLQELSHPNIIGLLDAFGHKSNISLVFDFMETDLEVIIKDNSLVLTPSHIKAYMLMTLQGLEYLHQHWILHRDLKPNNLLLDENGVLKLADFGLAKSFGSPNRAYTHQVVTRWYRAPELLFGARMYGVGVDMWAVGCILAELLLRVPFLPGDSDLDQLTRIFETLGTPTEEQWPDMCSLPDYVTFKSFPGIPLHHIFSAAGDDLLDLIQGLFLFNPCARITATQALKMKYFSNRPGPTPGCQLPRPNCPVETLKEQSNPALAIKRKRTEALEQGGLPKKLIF
CDK7/Cyclin H/MNAT1, sequence (P51948 whole entry, further chain, the tested form may be a part): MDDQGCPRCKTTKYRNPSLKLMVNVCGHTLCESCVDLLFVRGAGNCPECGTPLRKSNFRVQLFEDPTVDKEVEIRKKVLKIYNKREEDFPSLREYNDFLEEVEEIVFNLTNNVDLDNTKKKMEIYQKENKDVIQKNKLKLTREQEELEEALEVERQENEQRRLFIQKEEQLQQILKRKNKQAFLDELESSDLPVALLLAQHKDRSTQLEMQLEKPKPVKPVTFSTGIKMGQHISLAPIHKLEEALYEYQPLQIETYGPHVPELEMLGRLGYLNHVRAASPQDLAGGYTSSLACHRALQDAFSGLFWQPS
Cyclin-dependent kinase 7/ cyclin H, sequence (P51946 whole entry): as the sequence (P51946 whole entry, the tested form may be a part) above
Cyclin-dependent kinase 7/ cyclin H, sequence (P50613 whole entry): as the sequence (P50613 whole entry, the tested form may be a part) above
Cyclin-dependent kinase 4/G1/S-specific cyclin-E1, sequence (P11802 whole entry): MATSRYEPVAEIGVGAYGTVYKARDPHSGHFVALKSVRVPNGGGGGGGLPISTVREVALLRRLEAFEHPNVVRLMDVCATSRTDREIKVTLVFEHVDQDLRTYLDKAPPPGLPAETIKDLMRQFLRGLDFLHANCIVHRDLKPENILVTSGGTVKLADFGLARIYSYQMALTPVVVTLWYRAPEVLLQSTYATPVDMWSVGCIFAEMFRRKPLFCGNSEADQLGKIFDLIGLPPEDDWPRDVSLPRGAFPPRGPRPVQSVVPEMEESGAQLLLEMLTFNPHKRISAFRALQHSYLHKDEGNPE
Cyclin-dependent kinase 4/G1/S-specific cyclin-E1, sequence (P24864 whole entry, further chain): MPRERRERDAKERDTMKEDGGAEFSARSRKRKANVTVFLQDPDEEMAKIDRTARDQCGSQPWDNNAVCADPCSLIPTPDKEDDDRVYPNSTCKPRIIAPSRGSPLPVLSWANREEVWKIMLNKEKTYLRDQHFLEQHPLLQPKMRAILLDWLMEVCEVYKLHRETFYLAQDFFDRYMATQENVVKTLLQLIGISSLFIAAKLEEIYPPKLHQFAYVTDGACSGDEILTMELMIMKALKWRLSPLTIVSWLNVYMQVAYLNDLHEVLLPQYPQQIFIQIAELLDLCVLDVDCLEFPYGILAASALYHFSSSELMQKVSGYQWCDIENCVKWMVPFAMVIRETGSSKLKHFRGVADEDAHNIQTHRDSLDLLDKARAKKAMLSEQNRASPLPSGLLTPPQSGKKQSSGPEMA
Cyclin-dependent kinase 4/cyclin D1, sequence (P11802 whole entry, the tested form may be a part): as the sequence (P11802 whole entry) above
Cyclin-dependent kinase 4/cyclin D1, sequence (P24385 whole entry, further chain, the tested form may be a part): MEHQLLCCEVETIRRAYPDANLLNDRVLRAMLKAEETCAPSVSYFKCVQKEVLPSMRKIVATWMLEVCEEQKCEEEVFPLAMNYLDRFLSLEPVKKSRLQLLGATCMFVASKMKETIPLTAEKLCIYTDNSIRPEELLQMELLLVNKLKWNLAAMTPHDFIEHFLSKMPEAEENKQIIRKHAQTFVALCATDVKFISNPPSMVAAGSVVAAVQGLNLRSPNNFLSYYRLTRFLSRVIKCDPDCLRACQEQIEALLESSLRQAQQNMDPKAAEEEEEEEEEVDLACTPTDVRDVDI

Row | IC50 [7] | IC50 (CDK7/Cyclin H/MNAT1) | IC50 (CDK2/Cyclin A2 [8]) | IC50 [9] | IC50 [10] | Compound | CC50 at 72 h [1] | Activity (Homo sapiens) | IC50 [2] | IC50 (CDK2/Cyclin A2 [3]) | IC50 [4] | IC50 [5] | IC50 [6]
1 | – | – | – | – | – | CN1CC[C@H](c2c(O)cc(O)c3c(=O)cc(-c4ccccc4Cl)oc23)[C@H](O)C1 [ALVOCIDIB] | 120 nM | 67 - 80% | – | – | – | – | –
2 | – | – | – | – | – | CC[C@H](Nc1nc(NCc2cnc(C)cc2C)c2ncn(C(C)C)c2n1)[C@@H](C)O [CYC-065] | – | – | 193 nM | 5 nM | 21 nM | 232 nM | 578 nM
3 | 63 nM | 2870 nM | 224 nM | 396 nM | 2540 nM | CN1CC[C@@H](c2c(O)cc(O)c3c(=O)cc(-c4ccccc4Cl)oc23)[C@@H]1CO | – | – | – | – | – | – | 79 nM

Reference: ChEMBL document CHEMBL3856187, “Cyclin Dependent Kinase 9 Inhibitors for Cancer Therapy” (J Med Chem, 2016)
